Measurements published in US20240166703A1, “ANTI-INFLAMMATORY PEPTIDE AND METHOD OF USE THEREOF” (The Regents of the University of California, priority 2021, published 2024).

Assays:
BMDM cells = assay: Quantitation of cytokines in supernatant of cultured BMDM cells (toxicity); assay type: cell-based, C57BL/6J mice; settings: 100 μM, 24 hours, without stimulating the cells
Protocol: With the approval of the UCSD and Veteran Affairs San Diego Institutional Animal Care and Use Committees (IACUC), bone marrow-derived macrophage (BMDM) cells were isolated from 6-8 weeks old C57BL/6J mice (Jackson Laboratory) followed by erythrocyte lysis with ammonium chloride, and then seeded in 12-well plates at a concentration of 1×10^6 cells/mL. Cultured cells were differentiated to macrophages with culture media containing monocyte-colony stimulating factor (M-CSF; 10 ng/mL). After 7 days of differentiation, BMDM cells were treated with TNF-α (10 ng/mL) or LPS ([…]) with or without TAT-NEMO^ActPep, TAT-NEMO^ActPep6G, or MLN120B.
BMDM cels were pre-incubated with or without 100 μM TAT-NEMO^ActPep or MLN120B for 24 hours. Negative control cells were treated with 1×PBS or DMSO at the same concentrations as those present in either TAT-NEMO^ActPep or MLN120B, respectively. IL-1β and TNF-α levels were measured from 20 μL supernatant of cultured BMDM cells using U-PLEX mouse cytokine assay kit (Meso Scale Diagnostics) following the manufacturer's protocol. […] Experiments were performed in triplicate.
Further, the potentially toxic effects of a high concentration (100 μM) dose of NEMO^ActPep were tested on IL-1β production in BMDMs without stimulating the cells. […]

[1] = test system: B- and T-cell proliferation; settings: cited from earlier work
mice = settings: mouse, in vivo; cited from earlier work

Compound: COc1c(Cl)cc2c([nH]c3cnccc32)c1NC(=O)c1cccnc1C [MLN120B]
- TNF-α expression / basal levels in BMDM supernatant (BMDM cells): reduced basal levels of TNF-α
- production of IL-1β in BMDM supernatant (BMDM cells): significantly induced production of mature IL-1β
- B- and T-cell proliferation [1]: block B- and T-cell proliferation
- neutrophilia in mice (mice): promote neutrophilia
- septic shock in mice (mice): cause septic shock
